Structures can show the parent of a compound that is named as a salt. Where two headings read alike, the source gives them in different places.
Columns and labels:
[1] = format: physicochemical; settings: for Percentage Remaining after 3 months at, 40° C. / Percentage Remaining after 3 months at, 50° C. / Percentage Remaining after 3 months at, Ambient / assay after 12 months: syrup; for Percentage Remaining after 3 months at, 40° C. / Percentage Remaining after 3 months at, 50° C. / Percentage Remaining after 3 months at, Ambient: 131400 min; for assay after 12 months: 525600 min; for percent of original concentration retained in syrup: one month, d,l-glaucine phosphate 0.6 percent, others 0.2 percent, 43800 min
Procedure: Stability of d,l-glaucine phosphate was examined in the syrup vehicle of Example 4.
Syrups containing codeine phosphate, 0.2 percent contained 97.5, 104.5 or 100 percent, respectively, after one month at ambient temperature, 40° C. or 55° C. […] After three months, the percentage amount of antitussive agent remaining was as shown below.

mice [2] = test: Analgesic activity, phenyl-p-quinone mouse writhing test (printed "writing test"); format: in vivo; settings: 0.5 h, oral, 30 minutes prior to phenyl-p-quinone challenge
Procedure: Text compounds were evaluated for analgesic activity in the phenyl-p-quinone mouse writing test of Hendershot & Forsaith, J. Pharmacol. Exptl. Therap. 125(3) 237 (1959). The test compounds were administered orally 30 minutes prior to the phenyl-p-quinone challenge. In these operations, the oral ED50 's for d-glaucine. […]

guinea pigs [3] = test: Antitussive test, citric acid aerosol-induced cough, oral dosing; format: in vivo; settings: for ED50: Cavia porcellus, po, 1 h; for 95 percent confidence limits of the ED50: antitussive
Procedure: Separate groups of guinea pigs were orally administered various doses of a test compound, or distilled water for a control group. One hour after oral dosing, the guinea pigs were exposed to a 5 percent aerosol of citric acid for a 10 minute test period. The number of cough responses produced during the last five minutes of exposure to the citric acid aerosol was recorded and the dosage effect to suppress coughing in 50 percent of the guinea pigs (ED50) was calculated. An antitussive effect was recorded for a guinea pig when its total number of coughs during the 5 minute test period were at least two standard deviation units below the mean number of coughs per guinea pig in the control group. […];

guinea pigs [4] = test: Antitussive test, citric acid aerosol-induced cough, intraperitoneal injection; format: in vivo; settings: Cavia porcellus, ip
[5] = Therapeutic ratio LD50/ED50; format: in vivo; settings: mouse LD50, guinea pig ED50
[6] = Solubility in cough syrup vehicle; format: physicochemical; settings: cough syrup vehicle of Example 4
Procedure: A cough syrup vehicle formulation was prepared containing the following pharmaceutically-acceptable excipients:
Water g.s. to 4 liters total

mice [7] = format: in vivo; settings: naloxone 100 mg/kg intraperitoneal after last dose
Procedure: Physical dependency liability was evaluated in mice by the procedure of Saelens, et al., Arch. Int. Pharmacodynam, 190:213-218, 1971. In this procedure, mice are administered increasing doses of a test compound at intervals on two consecutive days. The last dosage on the second day is followed by intraperitoneal injection of the morphine antagonist, naloxone, at a dosage of 100 mg/kg, and the mice are observed for characteristic jumping behaviour indicative of opiate withdrawals or morphine antagonism.

monkeys = test: Abuse potential, self-administration in codeine-habituated monkeys (Deneau et al.); format: in vivo; settings: codeine 100 micrograms/kilogram per injection; d,l-glaucine phosphate substituted at 50, 100, 200 and 400 micrograms per kilogram injection
Excerpt: The abuse potential of d,l-glaucine phosphate was studied in two monkeys in a procedure similar to that described by Deneau, et al., Psychopharmacologia 16(1):30-48, 1969.
In this procedure, the test monkeys are restrained and a catheter inserted into the external jugular vein for injection of test substances in response to pressing a bar lever by the monkey. The test monkeys are first habituated to self-administer codeine at a rate of 100 micrograms/kilogram per injection. The self-administration rate of the two monkeys so trained and habituated was about 100 to 150 lever pushes per two hour session at the 100 microgram codeine level. […]

Acute lethality in mice = settings: mouse, in vivo, oral, mortality within 72 hours
Procedure: In other operations, various dosages of d,l-glaucine phosphate (2:3) were administered to groups mice by the oral route or by intraperitoneal injection, and the dosage which is lethal to 50 percent of the mice (LD50) was calculated from the mortality observations within 72 hours after administration.

[8] = Stability of syrup under continuous light in amber and flint glass bottles; format: physicochemical; settings: one month, ambient temperature, continuous light about 2000 Foot-candles, 43800 min
Procedure: In a procedure similar to that of Example 5, syrup formulations were prepared, placed in amber glass bottles and transparent (flint) glass bottles, and held under conditions of ambient temperature with continuous exposure to light. (About 2000 Foot-candles of combined fluorescent and incandescent light, for 24 hours/day.)

[9] = Plasma concentrations of l- or d-glaucine after oral administration; format: in vivo; settings: guinea pigs
Procedure: In other operations, l- and d-glaucine phosphate (2:3) were orally administered to separate guinea pigs and plasma concentrations of l- or d-glaucine were measured at intervals after dosing.

[10] = listed as d,1-Glaucine . HBr, hydrobromide

Question: Which “Percentage Remaining after 3 months at, 40° C.” value (from here on “Percentage Remaining … 40° C.”) ([1]; 40° C., listed as d,1-Glaucine . HBr, hydrobromide) does the source give for `COc1cc2c(cc1OC)-c1c(OC)c(OC)cc3c1C(C2)N(C)CC3` (racemic) [d,l-glaucine hydrobromide] here?
Answer: Its value is 93.3 Percentage.

Question: And the “Percentage Remaining after 3 months at, 50° C.” value (“Percentage Remaining … 50° C.” below) [1, 10]?
Answer: Its value is 91.4 Percentage.

Question: What about the “Percentage Remaining after 3 months at, Ambient” value (shortened to “Percentage Remaining … Ambient”) [1, 10] of the same compound?
Answer: Its value is 100.8 Percentage.

Question: And the “assay after 12 months” value ([1]; 55° C., hydrobromide)?
Answer: Its value is 87.3%.

Question: What about the “percent of original concentration retained in syrup” value (from here on “percent … in syrup”) ([1]; 40° C., hydrobromide) of the same compound?
Answer: The value was 96%.

Question: What about the “percent … in syrup” value ([1]; 55° C., hydrobromide) of the same compound?
Answer: Its value is 89.5%.

Question: What about the “percent … in syrup” value ([1]; ambient temperature, hydrobromide) of the same compound?
Answer: Its value is 99%.

Question: Which ED50 (mice [2]) does the source give for `COc1cc2c(cc1OC)-c1c(OC)c(OC)cc3c1C(C2)N(C)CC3` (racemic) [d,l-glaucine phosphate, d,l-Glaucine Phosphate] here?
Answer: Its ED50 is 23 mg/kg.

Question: What about the ED50 (guinea pigs [3]; restated in the description, read-out: oral ED50, antitussive) of the same compound?
Answer: Its ED50 is 17.8 mg/kg.

Question: What about the “95 percent confidence limits of the ED50” value (guinea pigs [3]) of the same compound?
Answer: Its value is 6.0-53.1 milligrams per kilogram.

Question: And the ED50 (guinea pigs [4])?
Answer: The ED50 was 17.3 mg/kg.

Question: What about the “therapeutic ratio (LD50/ED50)” value ([5]; intraperitoneal) of the same compound?
Answer: The value was 10.

Question: And the “therapeutic ratio (LD50/ED50)” value ([5]; oral antitussive activity)?
Answer: Its value is 38.

Question: And the solubility [6]?
Answer: Its solubility is 10000 µg/mL.

Question: And the “solubility in cough syrup vehicle per 5 milliliter dosage unit” value [6]?
Answer: Its value is “about 50 milligrams per 5 milliliter dosage unit”.

Question: What about the “mice jumping after naloxone treatment” value (mice [7]) of the same compound?
Answer: The value was “no jumping behaviour in any of the eight mice tested”.

Question: And the “monkey response rate (self-administration)” value (monkeys)?
Answer: Its value is 10-20 responses/two hour session.

Question: What about the “Percentage Remaining … 40° C.” value ([1]; 40° C.) of the same compound?
Answer: The value was 101.1 Percentage.

Question: What about the “Percentage Remaining … 50° C.” value [1] of the same compound?
Answer: The value was 98.7 Percentage.

Question: And the “Percentage Remaining … Ambient” value [1]?
Answer: Its value is 101.6 Percentage.

Question: What about the “assay after 12 months” value ([1]; 55° C., listed as phosphate salt) of the same compound?
Answer: Its value is 101.8%.

Question: And the “percent … in syrup” value ([1]; 40° C.)?
Answer: The value was 100.0%.

Question: And the “percent … in syrup” value ([1]; 55° C.)?
Answer: Its value is 98.4%.

Question: What about the “percent … in syrup” value ([1]; ambient temperature) of the same compound?
Answer: The value was 101.3%.

Question: And the LD50 at 72 h (Acute lethality in mice)?
Answer: The LD50 at 72 h was no less than 681 mg/kg.

Question: And the “assay of syrup in amber glass bottles” value ([8]; amber glass)?
Answer: Its value is 97.7%.

Question: What about the “assay of syrup in transparent (flint) glass bottles” value ([8]; flint glass) of the same compound?
Answer: The value was 90%.

Question: Which “95 percent confidence limits of the ED50” value (guinea pigs [3]) does the source give for `COc1ccc2c3c1O[C@H]1[C@@H](O)C=C[C@H]4[C@@H](C2)N(C)CC[C@@]341` [codeine phosphate] here?
Answer: Its value is 52.3-232.6 milligrams per kilogram.

Question: What about the “mice jumping after naloxone treatment” value (mice [7]) of the same compound?
Answer: The value was 2 of 6.

Question: What about the “total jumps after naloxone treatment” value (mice [7]) of the same compound?
Answer: The value was 23 jumps total.

Question: And the “Percentage Remaining … 40° C.” value ([1]; 40° C.)?
Answer: Its value is 101.1 Percentage.

Question: What about the “Percentage Remaining … 50° C.” value [1] of the same compound?
Answer: Its value is 88.4 Percentage.

Question: What about the “Percentage Remaining … Ambient” value [1] of the same compound?
Answer: The value was 101.3 Percentage.

Question: And the “percent … in syrup” value ([1]; 40° C.)?
Answer: Its value is 104.5%.

Question: What about the “percent … in syrup” value ([1]; 55° C.) of the same compound?
Answer: The value was 100%.

Question: And the “percent … in syrup” value ([1]; ambient temperature)?
Answer: The value was 97.5%.

Question: With `COc1ccc2c3c1O[C@H]1[C@@H](O)C=C[C@H]4[C@@H](C2)N(C)CC[C@@]341` [codeine, reference compound] as the compound, how does the “monkey response rate (self-administration)” value (monkeys) read?
Answer: The value was 100-150 responses/two hour session.

Question: Which “ED50, dosage effect to suppress coughing in 50 percent of the guinea pigs” value (guinea pigs [3]; one hour before 5 percent citric acid aerosol, 60 min) does the source give for `COc1cc2c(cc1OC)-c1c(OC)c(OC)cc3c1[C@H](C2)N(C)CC3` [d-glaucine phosphate, reference compound] here?
Answer: The value was 170.1 milligrams per kilogram.

Question: With `COc1cc2c(cc1OC)-c1c(OC)c(OC)cc3c1[C@@H](C2)N(C)CC3` [l-glaucine phosphate, l-glaucine phosphate (2:3)] as the compound, how does the ED50 (guinea pigs [3]; one hour before 5 percent citric acid aerosol, read-out: ED50, dosage effect to suppress coughing in 50 percent of the guinea pigs) read?
Answer: The ED50 was 10.9 mg/kg.

Question: And the “95 percent confidence limits of the ED50” value (guinea pigs [3])?
Answer: The value was 0.4-33.8 milligrams per kilogram.

Question: What about the “time within which high plasma levels of glaucine were produced” value [9] of the same compound?
Answer: The value was no more than 15 min.
